{"source": "patent US10532085B2", "about": "“Methods for increasing intracellular activity of Hsp70” (Orphazyme A/S, priority 2010, dated 2020)", "key": {"[1]": {"tested_on": "primary fibroblasts from Niemann-Pick Disease type A patient", "test": "Lysosomal cross-sectional area in NPDA patient fibroblasts", "format": "cell-based, Human", "conditions": "pulse-chase, added at T=0, measured at 24 h, 48 h, 72 h and 1 week; patient id 83/24; effect reversible", "protocol": "FIG. 5: Pulse-Chase experiment. rhHSP70 (recombinant human HSP70) was added to primary fibroblasts from Niemann-Pick Disease type A patient (patient id: 83/24) at T=0, measurements of lysosomal cross-sectional area were performed at 24 h, 48 h, 72 h and 1 week after administration. […] Conclusion: The effect of rhHSP70 is reversible and lasts ca. 1 week.\nFIG. 6: Arimoclomol dose-titration experiment. Various concentrations of Arimoclomol (‘Ari’) added for 48 h to primary fibroblasts from Niemann-Pick Disease type A patient (patient id: 83/24). Read-out: lysosomal cross-sectional area."}, "[2]": {"tested_on": "primary fibroblasts from Niemann-Pick Disease type C1 patient", "test": "Lysosomal cross-sectional area, laser confocal microscopy, NPC1 fibroblasts", "format": "cell-based, human", "conditions": "Alexa Fluor 488 labelled, added for 48 h; GM17918", "protocol": "FIG. 7: Test of rhHSP70 in non-sphingolipidosis. rhHSP70 labelled with Alexa Fluor 488 (for visualization of uptake) was added for 48 h to primary fibroblasts from Niemann-Pick Disease type C1 patient (Coriell Cell Repository ID: GM17918). Read-out: lysosomal cross-sectional area (Primary cellular pathology), performed by laser confocal microscopy."}, "[3]": {"test": "Surface plasmon resonance (BIAcore) BMP interaction", "format": "binding", "conditions": "acidic pH", "from_the_text": "Thus, we investigated the interaction of Hsp70 with palmitoyl-oleoyl-phosphatidylcholine (POPC) large unilamellar vesicles (LUVs) containing various membrane-associated anionic lipids, i.e. palmitoyl-oleoyl-phosphatidylserine (POPS; primarily in plasma membrane), cardiolipin (primarily mitochondrial) and BMP (primarily in late endosomes/lysosomes). Taking into account the increasingly acidic milieu of the endo-lysosomal compartment upon maturation to lysosomes, we compared the protein-lipid interactions in neutral (pH 7.4) and acidic (pH 6.0) conditions. […] As reported earlier for POPS, all negatively charged lipids enhanced the binding of rHsp70 to the liposomes at neutral pH approximately 4-fold irrespective of the charge density on the liposome surface (ranging from −1 to −2).\nIn order to investigate which part of the Hsp70 protein is responsible for the BMP binding, we measured the fluorescence shift of the tryptophans upon docking of rHsp70 and its mutants into BMP-containing liposomes. […] Next, we substituted the two tryptophans in Hsp70 with phenylalanines (W90F and W580F) and studied which tryptophan is responsible for the fluorescence shift induced by lipid binding. […] A more quantitative BIAcore analysis of the BMP—rHsp70 interaction confirmed that Hsp70 interacted with BMP mainly through its ATPase domain. […]"}, "ASM": {"molecular_target": "T1, ASM (Homo sapiens, UniProt P17405)", "T1 construct": "made in house", "T1 sequence (P17405 47-631)": "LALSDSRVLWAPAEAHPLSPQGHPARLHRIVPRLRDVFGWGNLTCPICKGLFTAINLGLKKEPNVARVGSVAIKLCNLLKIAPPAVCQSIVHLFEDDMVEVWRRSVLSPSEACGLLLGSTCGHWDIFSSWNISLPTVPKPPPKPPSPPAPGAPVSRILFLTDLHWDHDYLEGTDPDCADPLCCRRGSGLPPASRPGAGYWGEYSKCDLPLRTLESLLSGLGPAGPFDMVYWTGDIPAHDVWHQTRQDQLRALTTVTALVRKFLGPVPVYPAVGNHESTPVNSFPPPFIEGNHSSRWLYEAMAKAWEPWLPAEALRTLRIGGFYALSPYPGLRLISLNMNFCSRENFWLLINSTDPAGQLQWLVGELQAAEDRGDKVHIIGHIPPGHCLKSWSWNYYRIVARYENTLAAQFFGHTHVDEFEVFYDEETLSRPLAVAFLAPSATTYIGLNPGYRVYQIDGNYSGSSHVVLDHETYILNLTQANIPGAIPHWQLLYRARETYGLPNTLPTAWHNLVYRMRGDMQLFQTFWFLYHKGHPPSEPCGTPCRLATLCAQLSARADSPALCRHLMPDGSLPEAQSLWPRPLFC", "test": "BIAcore: binding of ASM to BMP-containing LUVs after rHsp70 pretreatment", "from_the_text": "(§1) BMP binds ASM with high affinity and stimulates its ability to hydrolyze sphingomyelin to ceramide and phosphorylcholine. […] In order to test whether ASM is responsible for the lysosome stabilizing effect we treated the cells with desipramine, a well characterized pharmacological ASM inhibitor. […] It should be noted that akin to rHsp70, also rASM localized to the lysosomes.\nFor preparation of LUVs a lipid mixture consisting of 10 mol % sphingomyelin, 50 mol % phosphatidylcholine, 20 mol % cholesterol and 20 mol % BMP dissolved in organic solvents, was dried under a stream of argon and rehydrated in Tris/HCl buffer (pH 7.4). The mixture was freeze-thawed nine times in liquid nitrogen and then in an incubator at 37° C. After ultrasound bath for 15 min the mixture was passed 21 times through a polycarbonate membrane with a pore diameter of 100 nm. Surface plasmon resonance measurements were performed using a BIAcore 2000 system at 25° C. LUVs (total lipid concentration 0.1 mM) were immobilized on the surface of a L1 sensor chip (BIAcore) in PBS (loading buffer). The running buffer used was sodium acetate buffer (50 mM, pH 4.5). As a control, acid sphingomyelinase (0.2 μM, 60 μl in running buffer) was injected directly on the liposome surface. Response units between 4100 RU—5250RU were obtained. […]"}, "NPDA cells": {"tested_on": "NPDA cells", "test": "Lysosomal stability in NPDA cells", "format": "cell-based, Human", "protocol": "as §1\nSub-confluent cells incubated with 2 μg/ml acridine orange for 15 min at 37° C. were washed, irradiated and analyzed in Hanks balanced salt solution complemented with 3% fetal calf serum. Cells for single cell imaging were selected from 8 pre-defined areas of each well in transmitted light-mode after which the same cells were immediately visualized and exposed to blue light from USH102 100W mercury arc burner (Ushio electric) installed in a U-ULS100HG housing (Olympus) for 20 sec. Fluorescence microscopy was performed on Olympus IX-70 inverted microscope with a LCPlanF1 ×20 objective with NA=0.40. Loss of lysosomal pH gradient was quantified by counting the loss of intense red staining. A more elaborate method for assaying lysosomal integrity was developed to handle the larger lysosomal compartment of the various fibroblasts used in this study. […] The resulting timelapse movies where subsequently analysed by the integrated Zeiss LSM DUO software."}}}
{"substance": "rHsp70: recombinant (human) heat shock protein 70; in some tests labelled with Alexa Fluor 488", "values": [{"measurement": "duration of the effect on lysosomal cross-sectional area", "setting": "[1]", "result": "ca. 1 week"}, {"measurement": "lysosomal cross-sectional area (primary cellular pathology)", "setting": "[2]", "result": "effectively reverts the lysosomal primary pathology"}, {"measurement": "interaction with BMP (BIAcore)", "setting": "[3]", "result": "high affinity binding"}, {"measurement": "subsequent binding of ASM to BMP-containing LUVs", "setting": "ASM; higher rHsp70 concentrations", "result": "inhibitory effect"}, {"measurement": "subsequent binding of ASM to BMP-containing LUVs", "setting": "ASM; pretreatment with rHsp70 at sub-equimolar concentrations", "result": "facilitated the subsequent binding of ASM"}, {"measurement": "stabilization of lysosomes in NPDA cells", "setting": "NPDA cells", "result": "stabilize the lysosomes"}]}
